Here are results for 12 compounds from patent US8247412B2, “Urea derivatives methods for their manufacture and uses thereof” (Galapagos Sasu, priority 2005, dated 2012).

Structures can show the parent of a compound that is named as a salt.

Assay [1] has as its system serum level of PTH (1-34+1-84). Put plainly: Rats with chronic renal failure (5/6 nephrectomy), serum PTH after oral administration. Format: in vivo, rats (Sprague-Dawley). The method, then:
II—Rats with Chronic Renal Failure • Chronic renal failure (CRF) was induced in male rats (220-250 g, Sprague-Dawley, CERJ) by ablation of ⅚ of the total renal mass. • After anaesthesia (Imalgene 1000), the rats were subjected to exeresis of the right kidney and ablation of both ends of the left kidney, representing approximately ⅔ of the organ). • The incision was cauterised by application of dry ice. […] The sera were frozen at −20° C. • After thawing, the serum level of PTH (1-34+1-84) was measured by a radioimmunology test (IRMA kit, rat, Immutopics).

The test system of assay [2] is serum level of PTH (1-34+1-84). The experiment in a line: PTH measurement on intact rats (serum PTH after oral administration). Format: in vivo, rats (Sprague-Dawley). The conditions noted are these: intact male rats.
Setting [3] is: Rattus norvegicus, 0.5 h, 10 mg/kg, 30 min, read-out: % PTH reduction at 30 min relative to the untreated group.

Regarding `O=C(Nc1nc(-c2cccnc2)cs1)N(CCC(c1ccccc1)c1ccccc1)CCN1CCOCC1` [Example 47, 1-(3,3-diphenyl-propyl)-1-(2-morpholin-4-yl-ethyl)-3-(4-pyridin-3-yl-thiazol-2-yl)-urea trihydrochloride], in assay [1] (Rattus norvegicus, 0.5 h, 30 mg/kg, 30 min, read-out: % PTH reduction at 30 min relative to the untreated group), the change in vivo at 30 mg/kg is -96%.
As for `N#Cc1ccc(-c2csc(NC(=O)N(CCC(c3ccccc3)c3ccccc3)CCN3CCOCC3)n2)cc1` [Example 44, 3-[4-(4-cyano-phenyl)-thiazol-2-yl]-1-(3,3-diphenyl-propyl)-1-(2-morpholin-4-yl-ethyl)-urea dihydrochloride], the change in vivo at 10 mg/kg in assay [1] (setting [3]) was -88%.
In the case of `O=C(Nc1nc2ccc(Cl)cc2s1)N(CCC(c1ccccc1)c1ccccc1)CCN1CCOCC1` [Example 2, 3-(6-chloro-benzothiazol-2-yl)-1-(3,3-diphenyl-propyl)-1-(2-morpholin-4-yl-ethyl)-urea dihydrochloride], the change in vivo at 10 mg/kg in assay [1] (setting [3]) is -84%. Besides, the “% PTH reduction at time t, relative to the untreated group” value in assay [2] (30 mg/kg, at 30 mn) is −93% at 30 mn.
`CCOC(=O)c1cc(-c2csc(NC(=O)N(CCC(c3ccccc3)c3ccccc3)CCN3CCOCC3)n2)on1` [Example 31, 5-{2-[3-(3,3-diphenyl-propyl)-3-(2-morpholin-4-yl-ethyl)-ureido]-thiazol-4-yl}-isoxazole-3-carboxylic acid ethyl ester dihydrochloride]: the change in vivo at 10 mg/kg in assay [1] (setting [3]) is -85%.
Turning to `CS(=O)(=O)c1ccc(-c2csc(NC(=O)N(CCC(c3ccccc3)c3ccccc3)CCN3CCOCC3)n2)cc1` [40 a], the “% PTH reduction at time t, relative to the untreated group” value in assay [2] (10 mg/kg, at 2 h) is on record as −71% at 2 h.
For `O=C(Nc1nc2ccccc2s1)N(CCC(c1ccccc1)c1ccccc1)CCN1CCOCC1` [Example 8, 3-benzothiazol-2-yl-1-(3,3-diphenyl-propyl)-1-(2-morpholin-4-yl-ethyl)-urea dihydrochloride], in assay [1] (10 mg/kg, 2 h), the “% PTH reduction at 2 h relative to the untreated group” value is given as −90%. In addition, in assay [1] (setting [3]), the change in vivo at 10 mg/kg is -80%.
Turning to `COc1ccc(-c2csc(NC(=O)N(CCC(c3ccccc3)c3ccccc3)CCN3CCOCC3)n2)cc1` [51 a], in assay [2] (10 mg/kg, at 2 h), the “% PTH reduction at time t, relative to the untreated group” value is recorded as −78% at 2 h.
Take `O=C(Nc1nc(-c2ccc(F)cc2)cs1)N(CCC(c1ccccc1)c1ccccc1)CCN1CCOCC1` [54 a]: the “% PTH reduction at time t, relative to the untreated group” value in assay [2] (10 mg/kg, at 2 h) was −78% at 2 h.
Regarding `Cc1ccc(-c2csc(NC(=O)N(CCC(c3ccccc3)c3ccccc3)CCN3CCOCC3)n2)o1` [Example 60, 1-(3,3-diphenyl-propyl)-3-[4-(5-methyl-furan-2-yl)-thiazol)-2-yl]-1-(2-morpholin-4-yl-ethyl)-urea dihydrochloride], the change in vivo at 10 mg/kg in assay [1] (setting [3]) was -87%.
Turning to `Cc1ccc(-c2csc(NC(=O)N(CCC(c3ccccc3)c3ccccc3)CCN3CCOCC3)n2)cc1` [Example 28, 1-(3,3-diphenyl-propyl)-1-(2-morpholin-4-yl-ethyl)-3-(4-p-tolyl-thiazol-2-yl)-urea dihydrochloride], the change in vivo at 10 mg/kg in assay [1] (setting [3]) is -91%.
Same read-out and setting: for `O=C(Nc1nc(-c2ccc(N3CCCC3)cc2)cs1)N(CCC(c1ccccc1)c1ccccc1)CCN1CCOCC1` [Example 36, 1-(3,3-diphenyl-propyl)-1-(2-morpholin-4-yl-ethyl)-3-[4-(4-pyrrolidin-1-yl-phenyl)-thiazol-2-yl]-urea trihydrochloride] the value was -98%.
On the same count and under the same terms, for `O=C(Nc1nc(-c2ccc(Cl)cc2)cs1)N(CCC(c1ccccc1)c1ccccc1)CCN1CCOCC1` [Example 25, 3-[4-(4-chloro-phenyl)-thiazol-2-yl]-1-(3,3-diphenyl-propyl)-1-(2-morpholin-4-yl-ethyl)-urea dihydrochloride] the value was -74%.
